Test results: patent US20020022617A1, “Methods for increasing nitric oxide synthase activity” (American Home Products Corporation, priority 2000, published 2002)

Test system: aortic rings of ovariectomized rats
Experiment: Basal NO release in isolated aortic rings of treated ovariectomized rats (phenylephrine curves before and after L-NAME)
Type: in vivo, Sprage-Dawley rats
Settings: for response of vessels to L-NAME after washout: 1 mg/kg/day by gastric gavage, 200 μM L-NAME, vehicle treated group had a significantly smaller response; for response of the vessels compared among intact, estradiol and TSE-424 treated groups / difference from vehicle treated group (basal NO release, separation of curves before and after L-NAME): 1 mg/kg/day; for response of the vessels compared among intact, estradiol and TSE-424 treated groups: all phenylephrine concentrations (except 0.01 μM phenylephrine TSE-424 treated group); for difference from vehicle treated group (basal NO release, separation of curves before and after L-NAME): at the 10 and 100 μM phenylephrine concentrations, p<0.05
Description: Sprage-Dawley rats (240-260 grams) were divided into 4 groups: (1) Normal non-ovariectomized (intact); (2) Ovariectomized (ovex) vehicle treated; (3) Ovariectomized 17-β estradiol treated (1 mg/kg/day); and (4) Ovariectomized TSE-424 treated (1 mg/kg/day). All animals were ovariectomized approximately 3 weeks prior to treatment. Each received 1 mg/kg/day of either 17-β estradiol sulfate or TSE-424 suspended in distilled, deionized water with 1% tween-80 by gastric gavage. Vehicle treated animals received an appropriate volume of the vehicle used in the drug treated groups.
Animals were euthanized by CO2 inhalation and exsanguination. Their thoracic aortas were rapidly removed and placed in 37° C. physiological solution with the following composition (mM): NaCl (54.7), KCl (5.0), NaHCO3 (25.0), MgCl2.2H2O (2.5), D-glucose (11.8) and CaCl2 (0.2) gassed with […] for a final pH of 7.4. The advantitia was removed from the outer surface and the vessel was cut into 2-3 mm wide rings. Rings were suspended in at 10 mL tissue bath with one end attached to the bottom of the bath and the other to a force transducer. A resting tension of 1 gram was placed on the rings.
After equilibration, the rings were exposed to increasing concentrations of phenylephrine (10^−8 to 10^−4 M) and the tension recorded. Baths were then rinsed 3 times with fresh buffer. After washout, 200 μM N′-nitro-L-arginine methyl ester hydrochloride (L-NAME) was added to the tissue bath and equilibrated for 30 minutes. The phenylephrine concentration response curve was then repeated.
Contraction amplitudes at each concentration of phenylephrine were normalized to the maximum phenylephrine-induced contraction before the addition of L-NAME and graphed. The amount of basal NO released was proportional to the degree of separation between the 2 curves before and after L-NAME. Statistical differences were at the p<0.05 level of significance using a repeated measures “Test of Effect Slices (SAS)” analysis of variance.

Compound | response of vessels to L-NAME after washout | response of the vessels compared among intact, estradiol and TSE-424 treated groups | difference from vehicle treated group (basal NO release, separation of curves before and after L-NAME)
Cc1c(-c2ccc(O)cc2)n(Cc2ccc(OCCN3CCCCCC3)cc2)c2ccc(O)cc12 [TSE-424, 1-[4-(2-Azepan-1yl-ethoxy)-benzyl]-2-(4-hydroxy-phenyl)-3-methyl-1H-indol-5-ol] | substantial contraction | indistinguishable | significantly different
C[C@]12CC[C@@H]3c4ccc(O)cc4CC[C@H]3[C@@H]1CC[C@@H]2O [estradiol, 17-β estradiol] | substantial contraction | indistinguishable | significantly different
